Test results taken from US11078185B2, “Mycobacterium tuberculosis—thioredoxin reductase inhibitor as an antitubercular agent” (Technische Universität Dortmund, priority 2017, dated 2021).
Converted amounts (≈) assume the structure as drawn. “And” between values parts separate entries of the source, which are not always exact repeats. Equal values may be shown once.

How the values were obtained:
[1] = target: MtTrxR (Mycobacterium tuberculosis thioredoxin reductase) (Mycobacterium tuberculosis, UniProt P9WHH1); assay: MtTrxR activity assay according to Lu et al. (DTNB assay); assay type: biochemical; conditions: error range = standard deviation
Description: The compounds according to the invention show good inhibitory activity towards MtTrxR. In a preferred embodiment, the compounds according to the invention have an IC50 value according to Lu et al. from 0.10 to 10.00 μM. Methods for determining the IC50 value according to Lu et al. are known to those skilled in the art. Reference is made in this respect to J. Lu, A. Vlamis-Gardikas, K. Kandasamy, R. Zhao, T. N. Gustafsson, L. Engstrand, S. Hoffner, L. Engman, A. Holmgren, FASEB J. 2013, 27, 1394-1403.
(§1) A biochemical evaluation of the inhibitory activity (i.e. the IC50 value) of the compounds obtained towards MtTrxR by means of an activity assay according to Lu et al. (error range indicated by the standard deviation) was conducted. The testing of the potential inhibitors against MtTrxR was performed according to the description of Lu et al. Furthermore, MIC50 values (generic minimum inhibitory concentration) of certain compounds were measured with the BD BACTEC™ MGIT™ system: […]

[2] = assay type: in vitro ADME
Description: Selected compounds were investigated in terms of their permeability with the aid of the PAMPA assay (Parallel Artificial Membrane Permeation Assay). The permeability of the compounds across an artificial membrane of phospholipids was tested in a filter plate. Since a significant difference existed between the artificial membrane and the mycobacterial cell wall, the values should only be used as a measure to be able to evaluate the permeability of the compounds with respect to each other. For this purpose, the distribution between a donor and acceptor chamber without membrane was determined as the reference value (100% flux), in which the concentration of the compounds in the chambers was determined spectrophotometrically. Subsequently, the permeability of compounds 1, 8, 63 and 68 across the membrane used was determined. The PAMPA flux [%] value was 12.60 for compound 1, 29.70 for compound 8, 53.60 for compound 63, and 41.00 for compound 68.

[3] = system: Mycobacterium tuberculosis; assay: Antimycobacterial activity (FIG. 1); assay type: cell-based
Source text: FIG. 1 is directed to the antimycobacterial activity of compounds 2, 8 and 68 according to the invention.

[4] = system: Mycobacterium tuberculosis; assay: MIC50 measured with the BD BACTEC MGIT system; assay type: cell-based; conditions: read-out: MIC50 [μM] (μG/mL)
Description: as §1

human macrophages = assay type: cell-based
Source text: FIG. 3 is directed to the cytotoxic activity of compound 68 according to the invention against human macrophages.

[5] = system: Mycobacterium tuberculosis strain H37Rv in infected human macrophages; assay: Antimycobacterial activity in infected human macrophages (FIG. 2); assay type: cell-based
Source text: FIG. 2 is directed to the antimycobacterial activity of compound 68 according to the invention against Mycobacterium tuberculosis strain H37Rv in infected human macrophages.

Sequence of MtTrxR (Mycobacterium tuberculosis thioredoxin reductase) (P9WHH1 whole entry): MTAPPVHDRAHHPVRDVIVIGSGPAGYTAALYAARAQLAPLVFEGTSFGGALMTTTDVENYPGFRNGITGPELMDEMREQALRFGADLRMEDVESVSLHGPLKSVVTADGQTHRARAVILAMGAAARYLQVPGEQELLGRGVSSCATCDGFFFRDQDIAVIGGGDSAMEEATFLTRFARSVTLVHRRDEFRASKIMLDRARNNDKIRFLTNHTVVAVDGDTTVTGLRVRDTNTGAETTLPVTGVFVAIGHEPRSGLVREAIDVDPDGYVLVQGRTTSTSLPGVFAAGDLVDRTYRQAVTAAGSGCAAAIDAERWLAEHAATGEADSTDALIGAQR

Row | SMILES | IC50 [1] | PAMPA flux [%] [2] [%] | antimycobacterial activity [3] | MIC50 [4] [µM] | cytotoxicity towards macrophages (human macrophages) | antimycobacterial activity in infected human macrophages [5]
1 | COc1ccc2nc(C)cc(Nc3ccc(O)cc3)c2c1 [Compound 1, 4-((6-Methoxy-2-methylquinolin-4-yl)amino)phenol, reference compound] | 11.5 ± 1.52 µM | 12.60 | – | – | – | –
2 | COc1ccc2nc(C)cc(Nc3ccc(S(=O)(=O)c4ccc(Nc5ccncc5)cc4)cc3)c2c1 [Compound 2, 6-methoxy-2-methyl-N-(4-((4-(pyridin-4-ylamino)phenyl)sulfonyl)phenyl)quinolin-4-amine] | 0.25 ± 0.04 µM | – | concentration-dependent antimycobacterial activity | 8 to 32 (≈ 3.97 to 15.9 µg/mL) | – | –
3 | COc1ccc2nc(C)cc(Nc3ccc(Cc4ccc(N)cc4)cc3)c2c1 [Compound 8, N-(4-(4-aminobenzyl)phenyl)-6-methoxy-2-methylquinolin-4-amine] | 1.8 µM | 29.70 | concentration-dependent antimycobacterial activity | 4 to 8 (≈ 1.48 to 2.96 µg/mL) | – | –
4 | COc1ccc2nc(C)cc(Nc3ccc(S(=O)(=O)c4ccc(N)cc4)cc3)c2c1 [Compound 9, N-(4-((4-aminophenyl)sulfonyl)phenyl)-6-methoxy-2-methylquinolin-4-amine] | 5.21 ± 0.24 µM | – | – | – | – | –
5 | COc1ccc2nc(C)cc(Nc3ccc(S(=O)(=O)c4ccc(NC(C)=O)cc4)cc3)c2c1 [Compound 10, N-(4-((4-((6-methoxy-2-methylquinolin-4-yl)amino)phenyl)sulfonyl)phenyl)acetamide] | 3.59 ± 1.95 µM | – | – | – | – | –
6 | COc1ccc2nc(C)cc(Nc3ccc(S(=O)(=O)c4ccc(Nc5ccncn5)cc4)cc3)c2c1 [Compound 24, 6-methoxy-2-methyl-N-(4-((4-(pyrimidin-4-yl-amino)phenyl)sulfonyl)phenyl)quinolin-4-amine] | 0.51 ± 0.04 µM | – | – | 8 to 32 (≈ 3.98 to 15.9 µg/mL) | – | –
7 | COc1ccc2nc(C)cc(Nc3ccc(S(=O)(=O)c4ccc(Nc5cc(C(C)(C)C)n[nH]5)cc4)cc3)c2c1 [Compound 25, N-(4-((4-((3-(tert-butyl)-1H-pyrazol-5-yl)amino)phenyl)sulfonyl)phenyl)-6methoxy-2-methylquinolin-4-amine] | 9.1 ± 0.3 µM | – | – | – | – | –
8 | COc1ccc(Nc2ccc(S(=O)(=O)c3ccc(Nc4cc(C)nc5ccc(OC)cc45)cc3)cc2)cc1 [Compound 26, 6-methoxy-N-(4-((4-((4-methoxyphenyl)amino)phenyl)sulfonyl)phenyl)-2-methylquinolin-4-amine] | 1.9 ± 0.8 µM | – | – | 8 to 32 (≈ 4.21 to 16.8 µg/mL) | – | –
9 | COC(=O)c1ccc(Nc2ccc(S(=O)(=O)c3ccc(Nc4cc(C)nc5ccc(OC)cc45)cc3)cc2)cc1 [Compound 27, methyl-4-((4-((4-((6-methoxy-2-methylquinolin-4-yl)amino)phenyl)sulfonyl)phenyl)amino) benzoate] | 4.8 ± 1.6 µM | – | – | – | – | –
10 | COc1ccc2nc(C)cc(Nc3ccc(C(=O)c4ccc(Nc5ccncc5)cc4)cc3)c2c1 [Compound 45, (4-((6-methoxy-2-methylquinolin-4-yl)amino)phenyl)(4-(pyridin-4-yl-amino)phenyl)methanone] | 1.04 ± 0.2 µM | – | – | > 32 | – | –
11 | COc1ccc2nc(C)cc(Nc3ccc(Cc4ccc(Nc5ccncc5)cc4)cc3)c2c1 [Compound 63, 6-methoxy-2-methyl-N-(4-(4-(pyridin-4-ylamino)benzyl)phenyl)quinolin-4-amine] | 5.64 µM and 4.7 µM | 53.60 | – | 8 to 32 (≈ 3.57 to 14.3 µg/mL) | – | –
12 | COc1ccc2nc(C)cc(Nc3ccc(Cc4ccc(Nc5ccncn5)cc4)cc3)c2c1 [Compound 68, 6-methoxy-2-methyl-N-(4-(4-(pyrimidin-4-ylamino)benzyl)phenyl)quinolin-4-amine] | 2.03 µM and 1.7 µM | 41.00 | concentration-dependent antimycobacterial activity | 2 to 8 (≈ 0.895 to 3.58 µg/mL) | without being toxic | concentration-dependent antimycobacterial activity
